“Also recorded” adds a separate entry of the source.
How the values were obtained:
p38 MAPK = settings: LPS-induced TNF-alpha production, human monocytes; published source; read-out: Cellular IC50; cited from earlier work
[1] = tested on: DRG neurons (axon vs. cell body compartment); assay: Campenot chamber local axon degeneration (anti-NGF in axon compartment); type: cell-based, mouse
Description: Teflon dividers (Tyler Research) were cleaned by washing in water and wiping them clean of any residual grease. Dividers were then soaked in Nochromix (Godax Laboratories)/sulfuric acid overnight, rinsed five times in distilled and autoclaved water (SQ water), boiled for 30 minutes, and then air-dried before use
Mouse laminin (5 μg/ml in sterile filtered water; Invitrogen) was added to PDL coated 35 mm dishes (BD Biosciences) and they were incubated for 1 hour at 37° C., followed by two rinses in SQ water. The dishes were vacuum-dried and then air-dried in a laminar flow hood for 15 minutes. Prepared dishes were then scored with a pin rake (Tyler Research). […] High vacuum grease (VWR) was added to each Teflon divider under a dissection scope. The laminin coated PDL dishes were inverted and dropped onto the Teflon divider, with additional pressure added by use of a toothpick in the non-track-containing regions. Dishes were incubated for 1 hour at 37° C. Five hundred microliters of NBM+MC (50 ng/ml NGF) solution was added to each of the side compartments, and a grease barrier was added in front of the center cell slot.
Free E13.5 spinal cords were dissected from mouse embryos and placed into NBM+MC (25 ng/ml NGF) solution. DRGs were detached from the spinal cord with a tungsten needle. An NBM+MC-lubricated P200 pipette was used to move DRGs into a 1.5 ml tube. DRGs were pelleted with a tabletop centrifuge for 30 seconds. The supernate was discarded and 0.05% Trypsin/EDTA (cold) was added. The pellet was resolubilized with a pipette and incubated at 37° C. for 15 minutes with constant agitation (650 RPM). The sample was again centrifuged and the supernate discarded. The pellet was resuspended in warm NBM+MC (50 ng/ml NGF) solution and triturated with a flamed glass pipette 20 times, followed by trituration with a fire-bored glass pipette another 20 times. The samples were again centrifuged and the resulting pellets were resuspended in 0.5 ml NBM+MC (50 ng/ml NGF) solution. The cells were diluted to a final concentration of 2.5×10^6 cells/ml. The cell suspensions were loaded into a 1 ml syringe with a 22 gauge needle. The center slot of the Campenot divider was filled using the syringe (to a volume of at least 50 μl). The Campenot chamber was incubated overnight at 37° C. 2.5 ml NGF+MC (50 ng/ml NGF) solution was added to the center compartment and the grease gate was removed. The outer medium (cell body compartment) was replaced after three days with 2.5 ml NBM+MC medium (with 25 ng/ml NGF). After five days in culture, one distal compartment was washed three times with warmed NBM+MC (no NGF) solution. After the third wash, 500 μl NBM+MC (no NGF) solution was added to the axon compartment in combination with either 0.5% DMSO or an inhibitor. The cell body compartment was replaced with 2.5 ml NBM+MC medium (with 25 ng/ml NGF) containing either 0.5% DMSO or inhibitor.
After 28 hours of anti-NGF antibody treatment, 8% PFA/30% sucrose solution (see above) was added directly to the culture medium at a 1:1 dilution and incubated for 30 minutes. The Teflon divider was removed after the first 15 minutes of addition. The system was washed once with 2.5 ml PBS prior to immunostaining. Neurons were blocked in 5% BSA/0.2% triton in PBS for 30 minutes. The primary antibody Tuj1 (Covance) was added to a final dilution of 1:1000 in PBS containing 2% BSA and incubated overnight at 4° C. The dish was washed once with PBS. […] The dish was washed twice with PBS, and a 22×22 mm coverslip (VWR) was added with 350 μl of fluoromount G (Electron Microscopy Sciences). The neurons were visualized by use of a fluorescence microscope.
As described above, E13.5 DRGs were isolated and grown for 5 days in a Campenot chamber.

[2] = tested on: cerebellar granule neurons (CGNs); assay: serum deprivation/KCl reduction degeneration of cerebellar granule neurons; type: cell-based, mouse; settings: 5 μM; 5 mM KCl, 24 hours
DRGs = assay: anti-NGF antibody (NGF withdrawal) screen for inhibitors of axon degeneration in DRG explants; type: cell-based, mouse; settings: inhibitor 100 μM or 10 μM added 1 hour before 25 μg/ml anti-NGF; 20 hours; actin stain
Description: The anti-NGF antibody model described above in Example 1 was used in a screen for inhibitors of neuron or axon degeneration. A library of more than 400 small molecules (Tocris Bioscience) was tested to see which, if any, modulate degeneration observed in the presence of anti-NGF antibodies.
Mouse E13.5 embryos were dissected and placed into L15 medium (Invitrogen). The spinal cord was dissected out from the embryos with DRGs attached. The spinal cords with DRGs attached were placed into L15 medium+5% goat serum (Gibco) on ice. The DRGs were removed using a tungsten needle and the remaining spinal cord was disposed of. Eight well slides were filled with N3-F12 solution (23 ml Ham's F12, 1 ml N3 supplement, and 1 ml 1 M glucose) to which was added 25 ng/ml NGF (Roche). (N3 supplement was made by dilution of N3 100× concentrate, which was made by mixing the following ingredients, in the following order: 5.0 ml Hank's buffered saline solution (HBSS; Ca, Mg free; Invitrogen), 1.0 ml bovine serum albumin (10 mg/ml in HBSS=150 μm), 2.0 ml Transferrin (T1147-1G, human, 100 mg/ml in HBSS=1.1 mM), 1.0 ml sodium selenite (S9133-1MG, 0.01 mg/ml in HBSS 58 μM), 0.4 ml putrescine dihydrochloride (P5780-5G, 80 mg/ml in HBSS=500 mM), 0.2 ml progesterone (P8783-5G, 0.125 mg/ml in absolute ethanol=400 μM), 0.02 ml corticosterone (C2505-500MG, 2 mg/ml in absolute ethanol=5.8 mM), 0.1 ml triiodothyonine, sodium salt (T6397-100MG, 0.2 mg/ml in 0.01 N NaOH=300 μM), 0.4 ml insulin (16634-250MG, bovine pancreas, 241 U/mg, 25 mg/ml in 20 mM HCl=4.4 mM), for a total volume of 10.02 ml (can be stored at −20° C.). An N3 supplement stock was made by combining the following: 10 ml Pen/Strep (100×, Gibco), 10 ml glutamine (200 mM, Gibco), 10 ml MEM vitamins (100×, Gibco), 10 ml N3 concentrate (100×, see above), for a total volume of 40 ml. The mixture was filter sterilized using a 0.22 μm filter, and 1-2 ml aliquots were stored at −20° C.).
The DRGs were sectioned into halves and placed in the center of each well of an 8-chamber slide (BD Biocoat PDL/Laminin coated glass, Becton Dickinson). The DRGs were permitted to attach to the slide at room temperature for 5-10 minutes, followed by an overnight incubation at 37° C. Inhibitors of choice were added at a concentration of 100 μM (top row) or 10 μM (bottom row) 1 hour before adding anti NGF antibodies. The anti-NGF antibodies were added to the right half of the slide (4 wells) at a concentration of 25 μg/ml. After incubation for 20 hours at 37° C., the slides were fixed with 30% sucrose/8% paraformaldehyde (PFA) by adding 250 μl of the fix solution directly to the 250 μl of culture medium. (To make the 30% sucrose/8% PFA solution, the following ingredients were added to a 600 ml beaker including a stir bar: 250 ml 16% PFA (cat#15710-S, Electron Microscopy Sciences), 50 ml 10×PBS pH 7.4, and 150 g sucrose. The solution was mixed under low heat until dissolved, and then 6-8 drops of 1 M NaOH were added to bring the pH to 7.4. The volume was then brought to 500 ml with water in a graduated cylinder. The solution was mixed well, placed in aliquots, and frozen.) The s ides were fixed for 30 minutes, followed by washing once with PBS. All cells were labeled with an actin stain (Alexa-568 conjugated phalloidin; 1:40; Invitrogen), a membrane dye (DiO; 1:200; Invitrogen), and a DNA stain (Hoechst 33258; 1:10,000; Invitrogen) in 0.1% Triton and 1% goat serum for 2 hours at room temperature. […]

CaMKK = CaMKK activity after ionomycin stimulation, transfected HeLa cells; published source; read-out: Cellular IC50; cited from earlier work

SMILES | IC50 (p38 MAPK) [nM] | formation of varicosities in locally NGF-deprived axons ([1]; 30 μM SB415, 15 μM Act D in cell body compartment, 10 μM AG555, 30 μM SB239 in axon compartment) | Axon Compartment (protection of NGF-deprived axons) ([1]; inhibitor 5 μM in axon compartment) | Cell Body Compartment (protection of NGF-deprived axons) ([1]; inhibitor 5 μM in cell body compartment) | Axon Compartment (protection of NGF-deprived axons) ([1]; inhibitor 30 μM in axon compartment, anti-NGF on axons 28 hours, number in parentheses not explained) | Axon Compartment (protection of NGF-deprived axons) ([1]; inhibitor 30 μM in axon compartment, anti-NGF on axons 28 hours, number in parentheses not explained, listed as SB239) | Cell Body Compartment (protection of NGF-deprived axons) ([1]; inhibitor 30 μM in cell body compartment, anti-NGF on axons 28 hours, number in parentheses not explained) | Cell Body Compartment (protection of NGF-deprived axons) ([1]; inhibitor 30 μM in cell body compartment, anti-NGF on axons 28 hours, number in parentheses not explained, listed as SB239) | protection of cerebellar granule neurons from serum deprivation/KCl reduction [2] | Axon Compartment (protection of NGF-deprived axons) ([1]; inhibitor 15 μM in axon compartment) | Cell Body Compartment (protection of NGF-deprived axons) ([1]; inhibitor 15 μM in cell body compartment) | Comments (observations on compounds found to protect against neurodegeneration) (DRGs) | IC50 (CaMKK) [nM]
COc1nccc(-c2c(-c3ccc(F)cc3)ncn2C2CCC(O)CC2)n1 (centres unmarked) [SB239063] | 350 | fewer varicosities | Yes (1) | No (1) | Yes (3) | did not degenerate; also recorded: protected from local degeneration | No (3) | failed to prevent degeneration | protect | – | – | – | –
O=C(O)c1ccc2c3c1cccc3c(=O)n1c3ccccc3nc21 [STO-609] | – | – | – | – | – | – | – | – | protect | Yes (1) | No (1) | Partial | 3000

Source: US20140328940A1, “MODULATION OF AXON DEGENERATION” (Genentech, Inc., priority 2009, published 2014)
